According to patent publication US8084262B2, “Biomarker for farnesyl pathway” (Hoffmann-La Roche Inc., priority 2006, dated 2011):
Where two headings read alike, the source gives them in different places.

Columns and labels:
N-acetyl-felinine [1] = test: Determination of N-acetyl-felinine in rat urine by LC-MS; type: in vivo, Sprague Dawley rats; conditions: for LC-MS signal for expected mass of N-acetyl felinine (m/z 248 in neg. mode): rat urine, 96 h after dosing
Procedure: (§1) Urine samples were collected in metabolism cages at 0 to 4° C. (automatically refrigerated by a Tecniplast sampling/cooling unit) at the intervals given in the sampling schedule below into sample tubes containing 1 ml of an aqueous Cs-azide (1%) solution. Before aliquoting, urine volumes were determined.
(§2) Immediately after reaching the end of the sampling period, the volume was determined and the samples were centrifuged at 3000 u/min [500 g] for 10 min.
LC-MS analysis of urine was performed using an Agilent 1100 HPLC system coupled to a Bruker Esquire 3000+ mass spectrometer equipped with an electrospray interface. Urine samples were diluted 4-fold with distilled water and 2 μl injections were made from a well plate maintained at 4° C. into a 150 mm×3.9 mm Waters Atlantis dC18 3 μm HPLC column maintained in an oven at 30° C. The column was eluted at a flow rate of 1 ml/min; mobile phase A consisted of 20 mM ammonium acetate, and mobile phase B of acetonitrile. […] The mass spectrometer was operated in negative mode with a dry gas flow of 81/min, nebulizer pressure of 27 psi and dry temperature of 330° C. The instrument was set to acquire over the mass range m/z 50-800. N-acetyl-felinine was found under this conditions at a retention time of 9.6 min with the expected m/z 248 (see FIG. 8) in samples of rats dosed with Zoledronate.

kidney and liver [2] = test: Histopathology of treated animals (kidney and liver toxicity)
N-acetyl-felinine [3] = test: Determination of N-acetyl-felinine in rat urine by NMR; type: in vivo, Sprague Dawley rats; conditions: for N-acetyl-felinine levels in urine: in a given time interval after stimulation
Procedure: as §1, §2
N-acetyl-felinine was identified in urine samples on basis of 1D and 2D NMR spectra. Spectra were acquired at 600.13 MHz on a Bruker AV 600 spectrometer and at 500.13 MHz on Bruker DRX-500 spectrometer. Urine samples were prepared and measured and the data evaluated as described elsewhere (Keun, H. C.; Ebbels, T. M. D.; Antti, H.; Bollard, M. E.; Beckonert, O.; Schlotterbeck, G.; Senn, H,; Niederhauser, U.; Holmes, E.; Lindon, J. C.; Nicholson, J. K. Chem. Res. Toxicol. 2002, 15, 1380-1386).
Aliquots of 400 microliter urine are transferred into well plates. For adjustment of urinary pH 200 microliter of buffer [ca. 0.2M Na2HPO4/NaH2PO4, ca. 1 mM TSP (3-trimethylsilyl-D4-propionic acid), ca. 3 mM sodium azide] is added to each well. Prepared well plates are centrifuged at ca. 3,000 rpm at 4° C. for 5-10 min to remove insoluble material.
^1H NMR spectra for Metabonomic analysis (e.g. at 500 Mhz, 64 k data points, 12019.2 Hz spectral width) were measured at 300K. The water resonance were suppressed by use of standard pulse-sequences (e.g noesyprld, irradiation for 2 s relaxation delay and during 100 ms mixing time). For each sample as many transients were added as is needed to provide spectra high enough in signal to noise. Fourier transformation was done by use of a matched window function (e.g. lb=1) followed by (automatic or manual) phasing and base-line correction. Referencing was done with respect to TSP added (defined as 0.0 ppm). Acquisition and processing of spectra was performed with Bruker XWinNMR 3.5 software.
Each spectrum recorded was reduced in size for simplified statistical analysis (e.g. For NMR spectra recorded according to the standard protocol 245 variables will be calculated by equidistant integration between 0.2-10.0 ppm). Regions containing misleading information (e.g. solvents, urea cover a region for 4.5 up to 6.0 ppm) were excluded or merged (e.g. the region from 2.66 to 2.74 ppm serves as a value indicative for citrate) prior to analysis. To take account variations in urine concentration, all data-reduced spectra were normalised to a constant integrated intensity of 100 units.
Thereby widespread PCA (principal component analysis) is used for identifying significant patterns of signals and assigning these patterns to samples and groups of samples. PLS (projection to latent structures, partial least squares) is also used for finding significant patterns of signals, whereby in contrast to PCA the information of dose-groups is used for boosting the identification of significant changes. The assignment is performed with the help of an internal data base of metabolites, with the help of pathway mapping procedures (KEGG database) and with the help of a spectroscopic structure elucidation for unknown metabolites when feasible.

kidney and liver [4] = conditions: rat, in vivo

| SMILES | N-acetyl-felinine in urine by LC-MS (N-acetyl-felinine [1]; negative mode, urine samples of dosed rats) | LC-MS signal for expected mass of N-acetyl felinine (m/z 248 in neg. mode) (N-acetyl-felinine [1]; 6 mg/kg, FIG. 8) | kidney and liver toxicity in histopathology (kidney and liver [2]) | N-acetyl-felinine in urine NMR spectra (N-acetyl-felinine [3]; 1D NMR, signal at 1.32 ppm, FIG. 5) | NMR signal at 1.32 ppm in urine (N-acetyl-felinine [3]; 96 h after dosing, FIG. 5) | N-acetyl-felinine levels in urine (N-acetyl-felinine [3]) | kidney and liver toxicity in histopathology (kidney and liver [4]) | LC-MS signal for expected mass of N-acetyl felinine (m/z 248 in neg. mode) (N-acetyl-felinine [1]; 3 mg/kg, FIG. 9) | Time course of bin 1.32 ppm (Methyl signals of N-Acetyl felinine) relative to creatinine (N-acetyl-felinine [3]; rat urine NMR, FIG. 3) |
| --- | --- | --- | --- | --- | --- | --- | --- | --- | --- |
| O=P(O)(O)C(O)(Cn1ccnc1)P(=O)(O)O [Zoledronate] | found | Strong signal found | kidney and liver toxicity was observed | found | New signal at 1.32 ppm visible | high levels | – | – | – |
| CCCCCN(C)CCC(O)(P(=O)(O)O)P(=O)(O)O [Ibandronate] | – | – | – | – | – | undetectable | not so | No signal found | no increase |
